Molecular target: T1, ornithine decarboxylase (ODC) (Rattus norvegicus, UniProt P09057)
T1 construct: is prepared from the livers of rats which have been injected with thioacetamide; from tissue; host or cells: liver of rats injected with thioacetamide (150 mg/kg, 18 h before sacrifice); purified about ten fold by acid treatment at pH 4.6
T1 sequence (P09057 1-461): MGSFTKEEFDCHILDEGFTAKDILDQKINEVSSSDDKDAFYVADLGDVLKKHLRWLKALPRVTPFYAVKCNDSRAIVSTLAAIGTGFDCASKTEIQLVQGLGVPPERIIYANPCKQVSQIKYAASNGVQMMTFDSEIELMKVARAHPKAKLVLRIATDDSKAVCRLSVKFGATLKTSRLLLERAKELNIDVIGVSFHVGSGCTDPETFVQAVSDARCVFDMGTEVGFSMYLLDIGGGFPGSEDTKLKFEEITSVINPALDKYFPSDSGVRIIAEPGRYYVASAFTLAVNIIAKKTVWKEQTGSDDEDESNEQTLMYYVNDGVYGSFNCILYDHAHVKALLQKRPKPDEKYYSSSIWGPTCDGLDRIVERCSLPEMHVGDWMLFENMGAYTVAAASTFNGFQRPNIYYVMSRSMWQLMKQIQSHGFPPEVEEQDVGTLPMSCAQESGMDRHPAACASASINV
Test: in vitro inhibition (time-dependent inactivation) of ornithine decarboxylase (ODC) prepared from rat liver
Assay type: biochemical
Details: 37° C.; for .tau.50 (half-life, at infinite concentration of inhibitor): pH 7.1, Kitz and Wilson; for Half-life (t1/2) at 10 μM: inhibitor at 10 μM, pH 7.1
Experimental: At different times 50 μl aliquots are transferred into a 1 mL assay medium containing sodium phosphate (30 mM, pH 7.1), dithiothreitol (5 mM), pyridoxal phosphate (0.1 mM), L-ornithine (0.081 μmol), and DL-[1-^14 C]ornithine (0.043 μmol, 58 Ci/mol, Amersham) in a closed vessel in which a filter paper moistered with 50 μl hyamine hydroxide (1M) is fitted. The reaction is allowed to proceed for 60 min at 37° C. and then terminated by addition of 0.5 ml of 40% trichloroacetic acid. After an additional 30 min, the CO2 absorbed on the filter paper is counted in a standard scintillation cocktail.

| SMILES | .tau.50 (half-life, at infinite concentration of inhibitor) [min] | Half-life (t1/2) at 10 μM [min] |
| --- | --- | --- |
| C=C(CN)CC(N)(CF)C(=O)O (stereo not shown) [D, 2-fluoromethyl-2,5-diamino-4-methylene-pentanoic acid] | 3.6 | 23 |
| C=C(CN)CC(N)CF (stereo not shown) [B, 1-fluoro-2,5-diamino-4-methylene-pentane] | 2.6 | 6.4 |
| NCC(=O)CC(N)(CF)C(=O)O (stereo not shown) [A, 2-fluoromethyl-2,5-diamino-4-oxo-pentanoic acid] | 3.1 | 4.5 |
| C=C(CN)CC(N)C(F)F (stereo not shown) [E, 1,1-difluoro-2,5-diamino-4-methylene-pentane] | 2.2 | 14 |
| NCC(=O)CC(N)CF (stereo not shown) [C, 1-fluoro-2,5-diamino-4-oxo-pentane] | 1.6 | 2.8 |

From patent publication US4446151A, “Decarboxylase-inhibiting fluorinated pentane diamine derivatives” (Merrell Toraude et Compagnie, priority 1982, dated 1984)
